Reference: US20240050434A1, “HORMAD1 THERAPEUTICS” (Royal Cancer Hospital, priority 2020, published 2024)
“Also recorded” adds a separate entry of the source.

Legend:
[1] = target: AURORA B kinase (Homo sapiens, UniProt Q96GD4); details: competitive ATP inhibition; Mortlock et al., 2007; cited from earlier work
[2] = test system: HORMAD1 positive organoid KCL625; test: HORMAD1 positive organoid KCL625 viability by cell titer glo; format: cell-based; details: indicated doses, 10 days
Experimental: Organoids were treated with the indicated doses of drug for 10 days and cell viability assessed by cell titer glo. Data is presented as mean and standard deviation of triplicate wells;

[3] = test system: RPE1 cells expressing a doxycycline-inducible HORMAD1 construct; test: Clonogenic survival assay (SRB) in RPE1 cells with doxycycline-inducible HORMAD1; format: cell-based; details: for clonogenic survival / sensitivity of HORMAD1 expressing versus HORMAD1-negative RPE1 cells: increasing doses, 7-14 days, normalised to vehicle
Experimental: Cell confluence was analysed every 6 hours for 10 days, using incucyte software. Data are from 3 biological replicates and analysed using a two-way ANOVA. […] RPE1 cells expressing a doxycycline-inducible HORMAD1 expression construct were exposed to doxycycline or vehicle (H2O) and were exposed to 20 nM of the Aurora B inhibitor, AZD1152-HQPA. Cell confluence was analysed every 6 hours for 10 days, using incucyte software. Data are from 3 biological replicates and analysed using a two-way ANOVA. […] 7-10 days post drugging, cells were fixed, stained with SRB, and colonies were counted using Cell Profiler. […] 10 days post drugging, cells were fixed, stained with SRB, and colonies were counted using Cell Profiler. […] RPE1 cells expressing a doxycycline-inducible HORMAD1 expression construct were exposed to doxycycline or vehicle (H2O) and to increasing doses of the Aurora B inhibitor, AZD1152-HQPA. 7-10 days post drugging, cells were fixed, stained with SRB, and colonies were counted using Cell Profiler. […] SUM159 cells expressing a doxycycline-inducible HORMAD1 expression construct were exposed to doxycycline or vehicle (H2O) and to increasing doses of the Aurora B inhibitor, AZD1152-HQPA. 10 days post drugging, cells were fixed, stained with SRB, and colonies were counted using Cell Profiler.
RPE1 cells were reverse transfected with BUB1 or control siRNA particles for 3 days. Cell lysates were collected, and analysed by western blotting using anti-BUB1 and anti-β-ACTIN antibodies. […] RPE1 cells expressing a doxycycline-inducible HORMAD1 expression construct were exposed to doxycycline or vehicle, and were reverse transfected with BUB1 or control siRNA particles. 5 days post transfection, cellular viability was estimated using cell titer glo reagent and surviving fractions were calculated relative to DMSO treated cells. […] Statistical significance estimated using a one-way ANOVA with Sidak's correction. C. Western blot illustrating expression of HORMAD1 in wild-type RPE1 cells and RPE1 cells depleted of BUB1 using CRISPR. WT and BUB1 depleted RPE1 cells expressing a doxycycline-inducible HORMAD1 expression construct, were exposed to doxycycline or vehicle for 3 days. Cell lysates were collected, and analysed by SDS-PAGE and western blotting using anti-HORMAD1, anti-H3 and anti-BUB1 antibodies. […] WT and BUB1 depleted RPE1 cells expressing a doxycycline-inducible HORMAD1 expression construct were exposed to doxycycline or vehicle. 7-10 days post doxycycline induction, cells were fixed, stained with SRB, and cellular viability was estimated using SRB absorbance readings. […] Statistical significance estimated using a one-way ANOVA with Sidak's correction. […] RPE1 expressing a doxycycline-inducible HORMAD1 expression construct, were exposed to doxycycline or vehicle. […] Cells were fixed, stained with SRB, and cellular viability was estimated using SRB absorbance readings. […] Cells were imaged every 4 hours, and confluence was continually measured using incucyte software. Growth curves were plotted, based on confluence. Data represent 3 biological replicas. […] Patient-derived organoids models were grown in culture and cell lysates collected and analysed using SDS-PAGE and western blotting using anti-HORMAD1 and anti-β-ACTIN antibodies. […] Cellular viability was estimated using cell titer glo reagent and surviving fractions were calculated relative to DMSO treated cells. […] Left, dose response curves for each organoid.

[4] = test system: SUM159 cells expressing a doxycycline-inducible HORMAD1 construct; test: Clonogenic survival assay (SRB) in SUM159 cells with doxycycline-inducible HORMAD1; format: cell-based; details: increasing doses, 10-14 days, normalised to vehicle
Experimental: Cell confluence was analysed every 6 hours for 10 days, using incucyte software. Data are from 3 biological replicates and analysed using a two-way ANOVA. […] RPE1 cells expressing a doxycycline-inducible HORMAD1 expression construct were exposed to doxycycline or vehicle (H2O) and were exposed to 20 nM of the Aurora B inhibitor, AZD1152-HQPA. Cell confluence was analysed every 6 hours for 10 days, using incucyte software. Data are from 3 biological replicates and analysed using a two-way ANOVA. […] 7-10 days post drugging, cells were fixed, stained with SRB, and colonies were counted using Cell Profiler. […] 10 days post drugging, cells were fixed, stained with SRB, and colonies were counted using Cell Profiler. […] 7-10 days post drugging, cells were fixed, stained with SRB, and colonies were counted using Cell Profiler. […] 10 days post drugging, cells were fixed, stained with SRB, and colonies were counted using Cell Profiler.
RPE1 and SUM159 cells expressing a doxycycline-inducible HORMAD1 construct were treated with doxycycline or vehicle. […] Surviving fractions were calculated (normalised to vehicle treated cells). […] Data from 3 replicas was analysed using 2-way ANOVA. […] Surviving fractions were calculated (normalised to vehicle treated cells). Data from 4 replicas was analysed using 2-way ANOVA. […]

[5] = test system: organoids from spontaneous tumours of WB1P mouse with or without human HORMAD1; test: Organoids from genetically engineered mouse model tumours, viability by cell titre glo; format: cell-based; details: increasing doses, 14 days post drugging
Source text: In a further experiment, HORMAD1 was expressed within a genetically engineered mouse model of triple-negative breast cancer (original model published in Annunziato et al., 2019). Human HORMAD1 was expressed in the WB1P mouse (Annunziato et al., 2019) using a transgene and derived organoids from spontaneous tumours.
Genetically engineered mouse models were generated by conditionally deleting BRCA1 and P53 in breast epithelia (Liu et al., 2007). Human HORMAD1 fused to luciferase was conditionally expressed under a breast-specific promoter. Spontaneous tumours from these mice were isolated and grown as organoids, treated with increasing doses of BUB1 inhibitor, BAY-1816032. 14 days post drugging, cell viability was estimated using cell titre glo reagent. Surviving fractions were calculated (normalised to vehicle treated cells). Data from 3 replicas, analysed using 2-way ANOVA.

[6] = test system: MDA-157, MDA-468, MDA436 TNBC cell-lines and MCF10A, MTSV1 non-transformed breast cell-lines; test: SRB viability in HORMAD1-positive TNBC cell-lines versus non-transformed breast cell-lines; format: cell-based; details: increasing doses, 10-14 days post drugging
Experimental: To confirm that endogenous HORMAD1 expression in cancer cells (as opposed to transgene-driven HORMAD1 expression) also causes BUB1 inhibitor sensitivity, increasing doses of BUB1 inhibitor was added to 3 HORMAD1-positive triple-negative breast cancer cell-lines (TNBC) and 2 HORMAD1-negative non-transformed breast cell-lines.
Three HORMAD1 positive TNBC cell-lines (MDA-157, MDA-468, MDA436) and two non-transformed breast cell-lines (MCF10A and MTSV1) were treated with increasing doses of BUB1 inhibitor BAY-1816032. 10-14 days post drugging, cell viability was estimated by staining cells with SRB and measuring absorbance. Surviving fractions were calculated (normalised to vehicle treated cells). Data is from 3 replicas, analysed using 2-way ANOVA.

[7] = test system: TP53 null MCF10A cells expressing a doxycycline-inducible HORMAD1 construct (3D spheroids); test: 3D spheroid viability (cell titre glo) in TP53 null MCF10A cells with inducible HORMAD1; format: cell-based; details: increasing doses, 14 days post drugging
Experimental: TP53 null MCF10A cells expressing a doxycycline-inducible HORMAD1 construct were treated with doxycycline or vehicle. Cells were grown in 3D spheroid cultures. Following doxycycline induction, increasing doses of BUB1 inhibitor BAY-1816032 was added to the cells. 14 days post drugging, cell viability was estimated using cell titre glo reagent. Surviving fractions were calculated (normalised to vehicle treated cells). Data is from 3 replicas, analysed using 2-way ANOVA.

AURORA B kinase, sequence (Q96GD4 whole entry): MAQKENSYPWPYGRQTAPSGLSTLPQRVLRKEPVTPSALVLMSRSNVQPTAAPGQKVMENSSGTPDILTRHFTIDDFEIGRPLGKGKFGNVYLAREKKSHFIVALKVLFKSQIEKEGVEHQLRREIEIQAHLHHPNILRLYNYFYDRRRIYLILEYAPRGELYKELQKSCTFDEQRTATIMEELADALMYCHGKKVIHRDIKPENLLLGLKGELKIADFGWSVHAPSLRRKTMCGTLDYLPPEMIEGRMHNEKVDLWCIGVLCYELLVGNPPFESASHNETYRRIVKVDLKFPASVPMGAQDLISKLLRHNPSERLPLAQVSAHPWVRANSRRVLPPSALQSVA

Structure (SMILES) | inhibition of AURORA B kinase activity [1] | sensitivity (surviving fraction versus DMSO) of organoid KCL625 [2] | clonogenic survival / sensitivity of HORMAD1 expressing versus HORMAD1-negative RPE1 cells [3] | clonogenic survival / sensitivity of HORMAD1 expressing versus HORMAD1-negative SUM159 cells [4] | growth inhibition of HORMAD1-expressing versus HORMAD1-negative mouse tumour organoids [5] | reduction of clonogenic capacity of RPE1 cells in presence of HORMAD1 expression compared to RPE1 cells not expressing HORMAD1 ([3]; 10 days post drugging) [%] | surviving fraction, HORMAD1-positive TNBC cell-lines compared with HORMAD1-negative non-transformed cell-lines [6] | growth inhibition of HORMAD1 expressing versus HORMAD1-negative spheroids [7]
CCN(CCO)CCCOc1ccc2c(Nc3cc(CC(=O)Nc4cccc(F)c4)[nH]n3)ncnc2c1 [AZD1152-HQPA] | potently inhibits | highly sensitive; also recorded: high sensitivity | more effectively inhibited; also recorded: reduced clonogenic survival; also recorded: increased Aurora B inhibitor sensitivity | reduced clonogenic survival; also recorded: increased Aurora B inhibitor sensitivity | – | – | – | –
COc1cnccc1Nc1nc(-c2nn(Cc3c(F)cc(OCCO)cc3F)c3ccccc23)ncc1OC [BAY-1816032] | – | – | increased cellular sensitivity | – | more effectively inhibited | 60 | significant differences | more effectively inhibited
